Measured values: article PMC11258351, “PK/PD investigation of antiviral host matriptase/TMPRSS2 inhibitors in cell models” (Scientific Reports, 2024)
“Also recorded” adds a separate entry of the source. Where two headings read alike, the source gives them in different places.

Tests used:
[1] = tested on: SARS-CoV-2; parameters: method as in PMID 32703818; details: Calu-3 cells, 50 μM, 24 h p.i.; cited from earlier work
[2] = tested on: Calu-3 cells; parameters: method as in PMID 32703818; details: 50 μM; cited from earlier work
[3] = tested on: H1N1 IAV; parameters: method as in PMID 23527573; details: Calu-3 cells; cited from earlier work
[4] = tested on: H3N2 IAV; parameters: method as in PMID 23527573; details: Calu-3 cells; cited from earlier work
[5] = tested on: H1N1 PR8; parameters: method as in PMID 23365447; details: Calu-3 cells; cited from earlier work
[6] = Prediction of in vivo human PK parameters from hepatocyte clearance; format: in vitro ADME; details: for Classification (extraction type) / Extraction ratio EH: predicted; for Predicted Cl, CLH: predicted from hepatocyte Clint, fu = 1
[7] = tested on: primary human hepatocytes; details: 50 μM; cited from earlier work
[8] = biological target: T1, CYP2C19 (Homo sapiens, UniProt P33261); assay: Fluorometric CYP2C19 activity assay in human hepatic microsomes; details: human liver microsomes, protease inhibitors at 50 µM, 15 min 37 °C
T1 sequence (P33261 whole entry): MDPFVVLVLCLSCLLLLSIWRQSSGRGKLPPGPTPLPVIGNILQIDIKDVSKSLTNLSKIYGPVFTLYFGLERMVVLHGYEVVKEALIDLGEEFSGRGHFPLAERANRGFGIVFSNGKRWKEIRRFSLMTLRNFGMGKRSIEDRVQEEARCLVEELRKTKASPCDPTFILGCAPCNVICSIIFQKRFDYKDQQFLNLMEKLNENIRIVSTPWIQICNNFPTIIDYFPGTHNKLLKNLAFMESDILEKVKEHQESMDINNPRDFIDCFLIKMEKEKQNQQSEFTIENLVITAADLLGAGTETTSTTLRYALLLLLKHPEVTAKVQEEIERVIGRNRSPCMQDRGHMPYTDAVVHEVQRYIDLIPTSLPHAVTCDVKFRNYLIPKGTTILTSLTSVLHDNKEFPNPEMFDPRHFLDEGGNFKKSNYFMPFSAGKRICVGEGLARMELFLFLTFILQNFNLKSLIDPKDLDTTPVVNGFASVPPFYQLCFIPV

[9] = tested on: human primary hepatocytes; assay: Depletion of inhibitors in human primary hepatocyte suspension (LC-MS/MS); details: primary human hepatocytes, 10 µM; for Parent compound retained at the 120-min sampling point: % of 0-min concentration, mean ± S.E.M.; for Sampling interval at which significant depletion was first observed: sampling 0-120 min
[10] = as above; details: human, cryopreserved primary human hepatocytes in suspension; for CLint scaled at 10 µM: intrinsic clearance from primary human hepatocytes scaled to whole liver/body weight
[11] = biological target: T2, CYP2C9 (Homo sapiens, UniProt P11712); assay: Fluorometric CYP2C9 activity assay in human hepatic microsomes; details: human liver microsomes, protease inhibitors at 50 µM, 15 min 37 °C
T2 sequence (P11712 whole entry): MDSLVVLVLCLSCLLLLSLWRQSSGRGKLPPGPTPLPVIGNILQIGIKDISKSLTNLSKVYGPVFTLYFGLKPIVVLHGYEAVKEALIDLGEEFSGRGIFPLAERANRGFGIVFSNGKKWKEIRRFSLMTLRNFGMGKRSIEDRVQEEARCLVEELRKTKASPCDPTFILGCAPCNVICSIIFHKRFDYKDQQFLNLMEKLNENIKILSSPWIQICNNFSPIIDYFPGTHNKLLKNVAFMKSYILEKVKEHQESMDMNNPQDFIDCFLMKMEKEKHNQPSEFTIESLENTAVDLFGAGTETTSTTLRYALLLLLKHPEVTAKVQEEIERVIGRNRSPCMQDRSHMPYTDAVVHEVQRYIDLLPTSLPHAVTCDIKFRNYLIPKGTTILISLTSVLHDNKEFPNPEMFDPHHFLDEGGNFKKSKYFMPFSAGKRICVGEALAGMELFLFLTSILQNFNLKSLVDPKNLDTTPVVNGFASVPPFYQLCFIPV

[12] = biological target: T3, CYP3A4 (Homo sapiens, UniProt P08684); assay: Fluorometric CYP3A4 activity assay in human hepatic microsomes; details: human liver microsomes, 10, 25 and 50 µM
T3 sequence (P08684 whole entry): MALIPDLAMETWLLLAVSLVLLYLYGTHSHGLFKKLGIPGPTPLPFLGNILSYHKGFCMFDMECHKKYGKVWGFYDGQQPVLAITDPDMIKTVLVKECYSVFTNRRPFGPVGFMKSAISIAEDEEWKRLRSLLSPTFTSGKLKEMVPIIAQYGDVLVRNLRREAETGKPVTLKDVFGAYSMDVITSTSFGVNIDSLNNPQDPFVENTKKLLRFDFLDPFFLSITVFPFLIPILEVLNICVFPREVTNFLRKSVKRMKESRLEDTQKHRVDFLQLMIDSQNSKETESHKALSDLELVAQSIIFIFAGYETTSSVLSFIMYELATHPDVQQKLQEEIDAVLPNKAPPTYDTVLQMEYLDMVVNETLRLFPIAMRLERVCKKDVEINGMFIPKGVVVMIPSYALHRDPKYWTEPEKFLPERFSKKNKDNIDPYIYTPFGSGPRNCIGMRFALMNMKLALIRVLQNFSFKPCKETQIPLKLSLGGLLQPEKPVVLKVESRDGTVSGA

[13] = biological target: T4, CYP2D6 (Homo sapiens, UniProt P10635); assay: Fluorometric CYP2D6 activity assay in human hepatic microsomes; details: human liver microsomes, protease inhibitors at 50 µM, 15 min 37 °C
T4 sequence (P10635 whole entry): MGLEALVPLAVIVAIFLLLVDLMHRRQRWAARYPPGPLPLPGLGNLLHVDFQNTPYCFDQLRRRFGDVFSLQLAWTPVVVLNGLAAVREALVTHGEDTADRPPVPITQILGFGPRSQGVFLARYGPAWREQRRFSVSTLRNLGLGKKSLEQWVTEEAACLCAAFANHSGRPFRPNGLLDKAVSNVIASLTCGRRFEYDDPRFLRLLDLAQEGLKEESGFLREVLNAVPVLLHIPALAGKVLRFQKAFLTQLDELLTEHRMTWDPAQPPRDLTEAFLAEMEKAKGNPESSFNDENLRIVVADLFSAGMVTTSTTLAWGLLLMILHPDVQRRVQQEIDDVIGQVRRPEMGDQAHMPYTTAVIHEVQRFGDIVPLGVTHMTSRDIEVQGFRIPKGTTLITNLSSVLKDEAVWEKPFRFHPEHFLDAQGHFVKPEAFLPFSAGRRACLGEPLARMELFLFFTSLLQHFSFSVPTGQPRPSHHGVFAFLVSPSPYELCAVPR

[14] = biological target: T5, CYP1A2 (Homo sapiens, UniProt P05177); assay: Fluorometric CYP1A2 activity assay in human hepatic microsomes; details: human liver microsomes, protease inhibitors at 50 µM, 15 min 37 °C
T5 sequence (P05177 1-516): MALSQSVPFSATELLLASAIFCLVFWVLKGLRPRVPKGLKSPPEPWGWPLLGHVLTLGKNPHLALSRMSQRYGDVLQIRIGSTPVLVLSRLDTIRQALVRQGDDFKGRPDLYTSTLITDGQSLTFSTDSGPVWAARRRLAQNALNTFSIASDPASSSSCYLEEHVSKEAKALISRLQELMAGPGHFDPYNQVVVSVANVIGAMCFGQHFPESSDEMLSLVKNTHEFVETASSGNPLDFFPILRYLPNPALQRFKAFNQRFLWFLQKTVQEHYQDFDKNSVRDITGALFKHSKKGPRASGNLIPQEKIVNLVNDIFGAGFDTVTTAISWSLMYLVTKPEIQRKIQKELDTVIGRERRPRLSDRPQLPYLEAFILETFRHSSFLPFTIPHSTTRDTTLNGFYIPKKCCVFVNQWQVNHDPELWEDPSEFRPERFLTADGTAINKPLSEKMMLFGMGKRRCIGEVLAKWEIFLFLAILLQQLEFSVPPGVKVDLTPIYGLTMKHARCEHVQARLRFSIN

[15] = tested on: cynomolgus monkey hepatocytes; parameters: method as in PMID 31391268; details: cited from earlier work
[16] = tested on: α-1 acidic glycoprotein; parameters: method as in PMID 37865989; details: cited from earlier work
[17] = tested on: H9N2 IAV strain A/quail/Shantou/782/00; format: cell-based, influenza A virus; details: MDCK-II cells, MOI 0.01, 50 µM, 24 h
[18] = tested on: A/Hamburg/5/09 (H1N1pdm); format: cell-based, influenza A virus
[19] = biological target: matriptase; parameters: method as in PMID 35635944; details: cited from earlier work
[20] = tested on: beagle dog CYP1A2; parameters: method as in PMID 35448654; details: cited from earlier work
[21] = biological target: TMPRSS2; parameters: method as in PMID 35635944; details: cited from earlier work
[22] = biological target: T3, CYP3A4; parameters: method as in PMID 34915414; details: fluorometric assays, earlier study; cited from earlier work
[23] = biological target: T1, CYP2C19; parameters: method as in PMID 34915414; details: earlier study; cited from earlier work
[24] = biological target: T4, CYP2D6; parameters: method as in PMID 34915414; details: earlier study; cited from earlier work
[25] = tested on: primary human hepatocytes; assay: Cytotoxicity in primary human hepatocytes; format: cell-based; details: 50 µM, 24 h
Experimental: Supplementary Figure S1. Cytotoxicity of MI-463 and MI-1900 at 50 µM for 24 h in primary human hepatocytes. DMSO was applied as solvent control at 0.5% for 24 h.

[26] = tested on: rat CYP1A2; parameters: method as in PMID 35448654; details: cited from earlier work
[27] = biological target: T5, CYP1A2; parameters: method as in PMID 34915414; details: earlier study; cited from earlier work
[28] = tested on: H9N2; details: MDCK-II cells, 20 μM and 50 μM; cited from earlier work
[29] = biological target: T2, CYP2C9; parameters: method as in PMID 34915414; details: earlier study; cited from earlier work
[30] = tested on: monkey CYP1A2; parameters: method as in PMID 35448654; details: cited from earlier work

Row | Compound | Reduction of SARS-CoV-2 viral titers compared to control samples [1] [fold] | Influence on Calu-3 cell viability [2] | Classification (extraction type) [6] | Extraction ratio EH [6] | Predicted Cl, CLH [6] | Inhibition of CYP2C19 activity [8] | Parent compound retained at the 120-min sampling point [9] [%] | Sampling interval at which significant depletion was first observed [9] [min] | half-life at 10 µM [10] [h] | CLint scaled at 10 µM [10] [mL/min/kg] | Inhibition of CYP2C9 activity [11] | Effect on CYP3A4 enzyme activity [12] | Inhibition of CYP2D6 activity [13] | Inhibition of CYP1A2 activity [14] | Treatment time after which significant conversion was seen [15] [min] | H9N2 viral spread / formation of viral foci [17] | further results
1 | N=C(N)c1cccc(C[C@H](NS(=O)(=O)c2cccc(-c3ccc(Cl)cc3Cl)c2)C(=O)N2CCC(CCN)CC2)c1.O=C(O)C(F)(F)F.O=C(O)C(F)(F)F [MI-432, reference compound] | 75 | without influencing Calu-3 cell viabilitiy significantly |  |  |  |  |  |  |  |  |  |  |  |  |  |  | Inhibition of proteolytic activation and replication of H1N1 IAV [3]: notable efficacy; Inhibition of proteolytic activation and replication of H3N2 IAV [4]: notable efficacy
2 | N=C(N)c1cccc(C[C@H](NS(=O)(=O)c2cccc(NC(=O)CCN)c2)C(=O)N2CCC(CCN)CC2)c1 [MI-21] |  |  | Intermediate | 0.53 | 10.92 | No significant CYP inhibitory potential | 16.6 ± 1.6 | 30 | 0.52 | 147 | No significant CYP inhibitory potential | did not cause significant reduction; also recorded: did not significantly suppress | No significant CYP inhibitory potential | No significant CYP inhibitory potential |  |  | Inhibition of replication of H1N1 PR8 [5]: promising inhibition; Cell toxicity [7]: no cell toxicity
3 | COc1ccc(-c2cccc(S(=O)(=O)N[C@@H](Cc3cccc(C(=N)N)c3)C(=O)N3CCC(N)CC3)c2)c(OC)c1 [MI-472] |  |  | Intermediate | 0.36 | 7.40 | No significant CYP inhibitory potential | 65.1 ± 5.5 | 30 | 3.84 | 19.8 | No significant CYP inhibitory potential | significant inhibitory effect | No significant CYP inhibitory potential | No significant CYP inhibitory potential | 60 to 120 | only slightly reduced formation of viral foci | Interaction with α-1 acidic glycoprotein [16]: complex formation
4 | COc1ccc(-c2cccc(S(=O)(=O)N[C@@H](Cc3cccc(C(=N)N)c3)C(=O)N3CCN(C(=O)NC4CCCCC4)CC3)c2)c(OC)c1 [MI-1900] | 35 to 280 | without influencing Calu-3 cell viabilitiy significantly | Intermediate | 0.45 | 9.23 |  | 48.6 ± 1.5 | 30 | 1.8 | 42.3 |  |  |  |  | 60 to 120 | strong suppression of viral spread | Reduction of H1N1 titers [18]: 1.62 logs; Ki [19]: 38 nM; Inhibition of beagle dog CYP1A2 [20]: no significant inhibition; Ki [21]: 79 nM; Inhibition of CYP3A4 activity [22]: substantial inhibitory effects; Inhibition of CYP2C19 activity [23]: No significant CYP inhibitory potential; Inhibition of CYP2D6 activity [24]: No significant CYP inhibitory potential; Cytotoxicity in primary human hepatocytes [25]: No significant differences in cell viabilities; also recorded: lack of cytotoxicity; Inhibition of rat CYP1A2 [26]: significant inhibition; Inhibition of CYP1A2 activity [27]: No significant CYP inhibitory potential; Effect on H9N2 virus propagation [28]: strongly inhibiting its replication; Inhibition of CYP2C9 activity [29]: No significant CYP inhibitory potential; Inhibition of monkey CYP1A2 [30]: significant inhibition
